Test results reported in ChEMBL document CHEMBL4610097, “Daphnane Diterpenoids from Daphne genkwa Inhibit PI3K/Akt/mTOR Signaling and Induce Cell Cycle Arrest and Apoptosis in Human Colon Cancer Cells” (J Nat Prod, 2020).

Key:
Type in all cases: functional, cell-based
[1] = tested on: SW-620; assay: Cytotoxicity against human SW620 cells after 24 hrs by MTT assay; conditions: SW-620, 24 h
[2] = tested on: RKO; assay: Cytotoxicity against human RKO cells after 24 hrs by MTT assay
[3] = tested on: LoVo; assay: Cytotoxicity against human LoVo cells after 24 hrs by MTT assay

Row | SMILES | IC50 [1] [µM] | IC50 [2] [µM] | IC50 [3] [µM]
1 | C=C(C)[C@@]12O[C@@]3(c4ccccc4)O[C@@H]1[C@@H]1[C@@H]4O[C@]4(CO)[C@@H](O)[C@]4(O)C(=O)C(C)=C[C@H]4[C@@]1(O3)[C@H](C)[C@H]2OC(=O)c1ccccc1 | > 10 | > 10 | > 10
2 | C=C(C)[C@@]12O[C@@]3(c4ccccc4)O[C@@H]1[C@@H]1[C@H](O)[C@@](O)(CO)[C@@H](O)[C@]4(O)C(=O)C(C)=C[C@H]4[C@@]1(O3)[C@H](C)[C@H]2OC(=O)c1ccccc1 | > 10 | > 10 | > 10
3 | C=C(C)[C@@]1(O)[C@H](OC(=O)/C=C/C=C/CCCCC)[C@@H]2[C@@H]3O[C@]3(CO)[C@@H](O)[C@]3(O)C(=O)C(C)=C[C@H]3[C@@]2(O)[C@H](C)[C@H]1OC(=O)c1ccccc1 [YUANHUAOATE E] | > 10 | > 10 | > 10
4 | C=C(C)[C@@]12O[C@@]3(/C=C/C=C\CCCCC)O[C@@H]1[C@@H]1[C@@H]4O[C@]4(CO)[C@@H](O)[C@]4(O)C(=O)C(C)=C[C@H]4[C@@]1(O3)[C@H](C)[C@H]2OC(=O)c1ccccc1 | 8.5 | > 10 | –
5 | C=C(C)[C@@]12O[C@@]3(/C=C/C=C\CCCCC)O[C@@H]1[C@@H]1[C@@H]4O[C@]4(CO)[C@@H](O)[C@]4(O)C(=O)C(C)=C[C@H]4[C@@]1(O3)[C@H](C)[C@H]2OC(C)=O | > 10 | > 10 | > 10
6 | C=C(C)[C@@]12O[C@@]3(c4ccccc4)O[C@@H]1[C@@H]1[C@@H]4O[C@]4(CO)[C@@H](O)[C@]4(O)C(=O)C(C)=C[C@H]4[C@@]1(O3)[C@H](C)[C@H]2OC(C)=O | > 10 | > 10 | > 10
7 | C=C(C)[C@@]12O[C@@]3(/C=C/C=C/CCCCC)O[C@@H]1[C@@H]1[C@@H]4O[C@]4(CO)[C@@H](O)[C@]4(O)C(=O)C(C)=C[C@H]4[C@@]1(O3)[C@H](C)[C@H]2OC(=O)c1ccccc1 [GNIDILATIDIN] | 4.3 | 6.5 | –
8 | C=C(C)[C@@]1(O)[C@H](OC(=O)/C=C/C=C/C=C/CCC)[C@@H]2[C@@H]3O[C@]3(CO)[C@@H](O)[C@]3(O)C(=O)C(C)=C[C@H]3[C@@]2(O)[C@H](C)[C@H]1OC(C)=O | > 10 | > 10 | > 10
9 | C=C(C)[C@@]1(O)[C@H](OC(=O)/C=C/C=C/CCCCC)[C@@H]2[C@H](O)[C@@](O)(CO)[C@@H](O)[C@]3(O)C(=O)C(C)=C[C@H]3[C@@]2(O)[C@H](C)[C@H]1OC(C)=O | > 10 | > 10 | > 10
10 | C=C(C)[C@@]12O[C@@]3(/C=C/C=C/CCCCC)O[C@@H]1[C@@H]1[C@@H]4O[C@]4(CO)[C@@H](O)[C@]4(O)C(=O)C(C)=C[C@H]4[C@@]1(O3)[C@H](C)[C@H]2OC(=O)CCC | 5.2 | 9.7 | –
11 | C=C(C)[C@@]12O[C@@]3(c4ccccc4)O[C@@H]1[C@@H]1[C@@H]4O[C@]4(CO)[C@@H](O)[C@]4(O)C(=O)C(C)=C[C@H]4[C@@]1(O3)[C@H](C)[C@H]2OC(=O)CCC | > 10 | > 10 | > 10
12 | C=C(C)[C@@]12O[C@@]3(/C=C/C=C/CCCCC)O[C@@H]1[C@@H]1[C@@H]4O[C@]4(CO)[C@@H](O)[C@]4(O)C(=O)C(C)=C[C@H]4[C@@]1(O3)[C@H](C)[C@H]2OC(=O)C(C)C | > 10 | > 10 | > 10
13 | C=C(C)[C@@]1(O)[C@H](OC(=O)/C=C/C=C/CCCCC)[C@@H]2[C@@H]3O[C@]3(CO)[C@@H](O)[C@]3(O)C(=O)C(C)=C[C@H]3[C@@]2(O)[C@H](C)[C@H]1OC(C)=O | > 10 | > 10 | > 10
14 | C=C(C)[C@@]12O[C@@]3(c4ccccc4)O[C@@H]1[C@@H]1[C@@H]4O[C@]4(CO)[C@@H](O)[C@]4(O)C(=O)C(C)=C[C@H]4[C@@]1(O3)[C@H](C)[C@H]2OC(=O)C(C)C | > 10 | > 10 | > 10
15 | C=C(C)[C@@]12O[C@@]3(/C=C/C=C/C=C\CCC)O[C@@H]1[C@@H]1[C@@H]4O[C@]4(CO)[C@@H](O)[C@]4(O)C(=O)C(C)=C[C@H]4[C@@]1(O3)[C@H](C)[C@H]2OC(=O)c1ccccc1 | > 10 | > 10 | > 10
16 | C=C(C)[C@@]1(O)[C@H](O)[C@@H]2[C@@H]3O[C@]3(CO)[C@@H](O)[C@]3(O)C(=O)C(C)=C[C@H]3[C@@]2(O)[C@H](C)[C@H]1OC(C)=O | > 10 | > 10 | > 10
17 | C=C(C)[C@@]12O[C@@]3(/C=C/C=C/CCCCC)O[C@@H]1[C@@H]1[C@@H]4O[C@]4(CO)[C@@H](O)[C@]4(O)C(=O)C(C)=C[C@H]4[C@@]1(O3)[C@H](C)[C@H]2OC(=O)CC | > 10 | > 10 | > 10
18 | C=C(C)[C@@]12O[C@@]3(/C=C/C=C/CCCCC)O[C@@H]1[C@@H]1[C@@H]4O[C@]4(CO)[C@@H](O)[C@]4(O)C(=O)C(C)=C[C@H]4[C@@]1(O3)[C@H](C)[C@H]2OC(C)=O [YUANHUADINE] | > 10 | > 10 | > 10
19 | C=C(C)[C@@]1(O)[C@H](OC(=O)/C=C/C=C/CCCCC)[C@@H]2[C@H](O)[C@@](O)(CO)[C@@H](O)[C@]3(O)C(=O)C(C)=C[C@H]3[C@@]2(O)[C@H](C)[C@H]1OC(=O)c1ccccc1 | > 10 | > 10 | > 10
20 | C=C(C)[C@@]12O[C@@]3(/C=C/C=C/CCCCC)O[C@@H]1[C@@H]1[C@@H]4O[C@]4(CO)[C@@H](O)[C@]4(O)C(=O)C(C)=C[C@H]4[C@@]1(O3)[C@H](C)[C@H]2O | > 10 | > 10 | > 10
21 | O=c1[nH]cc(F)c(=O)[nH]1 [FLUOROURACIL] | 10 | > 10 | –
22 | C=C(C)[C@@]12O[C@@]3(/C=C/C=C/C=C\CCC)O[C@@H]1[C@@H]1[C@@H]4O[C@]4(CO)[C@@H](O)[C@]4(O)C(=O)C(C)=C[C@H]4[C@@]1(O3)[C@H](C)[C@H]2OC(C)=O | > 10 | > 10 | > 10
